From ChEMBL document CHEMBL4811244, “Design and synthesis of 1H-pyrazolo[3,4-b]pyridines targeting mitogen-activated protein kinase kinase 4 (MKK4) - A promising target for liver regeneration” (Eur J Med Chem, 2021)

Columns and labels:
[1] = molecular target: T1, Dual specificity mitogen-activated protein kinase kinase 7 (Homo sapiens) (UniProt O14733); test: Binding affinity to wild-type human full length MKK7 (M1 to R419 residues) expressed in mammalian expression system assessed as residual binding level at 100 nM by Kinomescan method relative to control
T1 sequence (whole entry): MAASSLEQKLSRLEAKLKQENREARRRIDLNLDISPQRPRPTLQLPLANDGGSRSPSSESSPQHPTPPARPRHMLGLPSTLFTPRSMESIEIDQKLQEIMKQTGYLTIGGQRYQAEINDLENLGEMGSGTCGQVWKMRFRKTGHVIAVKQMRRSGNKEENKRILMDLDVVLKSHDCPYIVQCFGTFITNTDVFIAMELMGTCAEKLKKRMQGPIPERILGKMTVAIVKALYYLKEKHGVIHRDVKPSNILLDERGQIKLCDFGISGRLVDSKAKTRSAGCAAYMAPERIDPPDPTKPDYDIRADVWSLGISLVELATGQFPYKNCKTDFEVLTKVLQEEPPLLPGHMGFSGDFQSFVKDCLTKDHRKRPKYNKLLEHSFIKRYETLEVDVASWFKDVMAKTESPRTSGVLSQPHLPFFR

[2] = molecular target: Mitogen-activated protein kinase kinase kinase kinase 5 (Homo sapiens, UniProt Q9Y4K4); test: Binding affinity to wild-type human partial length MAP4K5 (M1 to P297 residues) expressed in bacterial expression system assessed as residual binding level at 100 nM by Kinomescan method relative to control
Sequence of Mitogen-activated protein kinase kinase kinase kinase 5 (Q9Y4K4 whole entry, looked up, the tested form may be a part): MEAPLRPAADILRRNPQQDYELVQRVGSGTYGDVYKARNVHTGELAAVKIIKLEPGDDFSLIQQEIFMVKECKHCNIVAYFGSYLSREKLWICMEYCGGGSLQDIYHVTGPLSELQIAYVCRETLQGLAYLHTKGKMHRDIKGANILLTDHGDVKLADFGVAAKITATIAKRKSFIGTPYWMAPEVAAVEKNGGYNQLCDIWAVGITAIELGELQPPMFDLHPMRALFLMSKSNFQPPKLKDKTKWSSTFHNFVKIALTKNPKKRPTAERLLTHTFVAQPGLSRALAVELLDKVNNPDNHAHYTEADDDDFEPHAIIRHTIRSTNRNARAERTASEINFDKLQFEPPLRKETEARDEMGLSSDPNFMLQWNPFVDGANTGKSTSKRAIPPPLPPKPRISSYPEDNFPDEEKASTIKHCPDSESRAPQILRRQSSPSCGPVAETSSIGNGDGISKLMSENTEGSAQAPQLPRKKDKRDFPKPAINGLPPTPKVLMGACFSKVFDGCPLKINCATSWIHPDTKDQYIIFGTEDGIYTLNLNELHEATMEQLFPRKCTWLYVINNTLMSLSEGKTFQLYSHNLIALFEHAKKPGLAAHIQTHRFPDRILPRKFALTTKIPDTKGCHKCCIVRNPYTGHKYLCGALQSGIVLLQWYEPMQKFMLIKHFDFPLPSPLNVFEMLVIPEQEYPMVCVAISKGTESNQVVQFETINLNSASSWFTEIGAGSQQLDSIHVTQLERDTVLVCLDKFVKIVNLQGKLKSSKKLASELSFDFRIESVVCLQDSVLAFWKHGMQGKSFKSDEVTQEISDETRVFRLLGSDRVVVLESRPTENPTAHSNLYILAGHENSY

[3] = molecular target: Mitogen-activated protein kinase kinase kinase 20 (Homo sapiens, UniProt Q9NYL2); test: Binding affinity to wild-type human partial length ZAK (M1 to L331 residues) expressed in bacterial expression system assessed as residual binding level at 100 nM by Kinomescan method relative to control
Sequence of Mitogen-activated protein kinase kinase kinase 20 (Q9NYL2 2-800 limits assumed): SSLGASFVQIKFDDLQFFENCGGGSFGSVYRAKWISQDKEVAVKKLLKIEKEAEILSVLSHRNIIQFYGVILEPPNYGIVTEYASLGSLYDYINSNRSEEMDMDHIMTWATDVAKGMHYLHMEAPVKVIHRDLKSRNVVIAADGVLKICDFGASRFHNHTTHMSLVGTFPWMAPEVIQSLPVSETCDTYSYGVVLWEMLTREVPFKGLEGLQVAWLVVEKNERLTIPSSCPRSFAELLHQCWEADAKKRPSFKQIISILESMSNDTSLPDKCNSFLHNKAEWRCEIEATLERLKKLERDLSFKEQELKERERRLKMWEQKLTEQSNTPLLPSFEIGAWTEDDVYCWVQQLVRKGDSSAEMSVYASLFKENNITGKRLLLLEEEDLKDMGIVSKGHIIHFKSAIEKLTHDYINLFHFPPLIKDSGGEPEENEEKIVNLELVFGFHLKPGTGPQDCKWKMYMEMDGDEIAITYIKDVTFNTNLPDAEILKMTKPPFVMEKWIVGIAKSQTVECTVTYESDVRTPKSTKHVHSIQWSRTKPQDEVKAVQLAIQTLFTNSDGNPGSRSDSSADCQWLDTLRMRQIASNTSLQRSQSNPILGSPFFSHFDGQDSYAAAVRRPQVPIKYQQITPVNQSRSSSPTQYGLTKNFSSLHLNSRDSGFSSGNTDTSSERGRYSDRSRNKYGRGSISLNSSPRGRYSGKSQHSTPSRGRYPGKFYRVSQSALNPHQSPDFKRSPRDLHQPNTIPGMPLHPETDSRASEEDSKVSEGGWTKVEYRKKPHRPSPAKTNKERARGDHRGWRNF

SMILES	Activity [1]	Activity [2]	Activity [3]
CCCS(=O)(=O)Nc1ccc(F)c(C(=O)c2n[nH]c3ncc(-c4ccc(S(C)(=O)=O)cc4)cc23)c1F	100%	14%	21%
CCCS(=O)(=O)Nc1ccc(F)c(C(=O)c2n[nH]c3ncc(-c4ccc(N(C)C)cc4)cc23)c1F	100%	31%	2.2%
CCCS(=O)(=O)Nc1ccc(F)c(C(=O)c2n[nH]c3ncc(-c4ccc(C(C)(C)C)cc4)cc23)c1F	100%	97%	77%
CCCS(=O)(=O)Nc1ccc(F)c(C(=O)c2n[nH]c3ncc(-c4ccc(C(F)(F)F)cc4)cc23)c1F	100%	76%	75%
CCCS(=O)(=O)Nc1ccc(F)c(C(=O)c2n[nH]c3ncc(-c4ccccc4OC)cc23)c1F	100%	34%	36%
CCCS(=O)(=O)Nc1ccc(F)c(C(=O)c2n[nH]c3ncc(-c4ccccc4Cl)cc23)c1F	100%	96%	64%
CCCS(=O)(=O)Nc1ccc(F)c(C(=O)c2n[nH]c3ncc(-c4ccc([N+](=O)[O-])cc4)cc23)c1F	100%	61%	23%
CCCS(=O)(=O)Nc1ccc(F)c(C(=O)c2n[nH]c3ncc(-c4ccc(C(N)=O)cc4)cc23)c1F	99%	10%	8.1%
CS(=O)(=O)Nc1ccc(F)c(C(=O)c2n[nH]c3ncc(-c4ccc(S(N)(=O)=O)cc4)cc23)c1F	99%	99%	100%
CCCS(=O)(=O)Nc1ccc(F)c(C(=O)c2n[nH]c3ncc(-c4ccc(C(C)C)cc4)cc23)c1F	98%	89%	92%
CCCS(=O)(=O)Nc1ccc(F)c(C(=O)c2n[nH]c3ncc(-c4ccc(-c5nnn[nH]5)cc4)cc23)c1F	64%	81%	20%
CCCS(=O)(=O)Nc1ccc(F)c(C(=O)c2n[nH]c3ncc(-c4ccc(S(=O)(=O)NC)cc4)cc23)c1F	100%	17%	33%
CCCS(=O)(=O)Nc1ccc(F)c(C(=O)c2n[nH]c3ncc(-c4ccc(C(=O)O)cc4)cc23)c1F	27%	75%	7.5%
CCCS(=O)(=O)Nc1ccc(F)c(C(=O)c2n[nH]c3ncc(-c4ccc(S(N)(=O)=O)cc4F)cc23)c1F	100%	77%	100%
CCCS(=O)(=O)Nc1ccc(F)c(C(=O)c2n[nH]c3ncc(-c4ccc(Cl)c(C(F)(F)F)c4)cc23)c1F	100%	16%	20%
CCCS(=O)(=O)Nc1ccc(F)c(C(=O)c2n[nH]c3ncc(-c4ccccc4)cc23)c1F	100%	24%	1.9%
CCCS(=O)(=O)Nc1ccc(F)c(C(=O)c2n[nH]c3ncc(-c4ccc(S(N)(=O)=O)cc4Cl)cc23)c1F	100%		100%
CCCS(=O)(=O)Nc1ccc(F)c(C(=O)c2n[nH]c3ncc(-c4ccccc4O)cc23)c1F	100%	39%	9.7%
CCCCS(=O)(=O)Nc1ccc(F)c(C(=O)c2n[nH]c3ncc(-c4ccc(S(N)(=O)=O)cc4)cc23)c1F	100%	100%	100%
CCCS(=O)(=O)Nc1ccc(F)c(C(=O)c2n[nH]c3ncc(-c4ccc(OC)cc4Cl)cc23)c1F	100%	53%	74%
CCCS(=O)(=O)Nc1ccc(F)c(C(=O)c2n[nH]c3ncc(-c4ccc(Cl)cc4Cl)cc23)c1F	96%	100%	99%
CCCS(=O)(=O)Nc1ccc(F)c(C(=O)c2n[nH]c3ncc(-c4ccc(S(N)(=O)=O)cc4C)cc23)c1F	100%		94%
CCCS(=O)(=O)Nc1ccc(F)c(C(=O)c2n[nH]c3ncc(-c4ccc(S(=O)(=O)NCC)cc4)cc23)c1F	100%	26%	32%

Next, values leading:

Activity [1]	Activity [2]	Activity [3]	SMILES
100%	18%	5.5%	CCCS(=O)(=O)Nc1ccc(F)c(C(=O)c2n[nH]c3ncc(-c4cccc(C)c4)cc23)c1F
100%	100%	85%	CCCS(=O)(=O)Nc1ccc(F)c(C(=O)c2n[nH]c3ncc(-c4ccc(Cl)c(Cl)c4)cc23)c1F
100%	25%	5.9%	CCCS(=O)(=O)Nc1ccc(F)c(C(=O)c2n[nH]c3ncc(-c4ccc(C)cc4)cc23)c1F
100%	20%	24%	CCCS(=O)(=O)Nc1ccc(F)c(C(=O)c2n[nH]c3ncc(-c4ccc(C)c(C)c4)cc23)c1F
86%	3.8%	2.3%	CCCS(=O)(=O)Nc1ccc(F)c(C(=O)c2n[nH]c3ncc(-c4cccc(N)c4)cc23)c1F
93%	1.3%	2.7%	CCCS(=O)(=O)Nc1ccc(F)c(C(=O)c2n[nH]c3ncc(-c4ccc(N)cc4)cc23)c1F
100%	98%	44%	CCCS(=O)(=O)Nc1ccc(F)c(C(=O)c2n[nH]c3ncc(-c4cccc(C(F)(F)F)c4)cc23)c1F
100%	69%	16%	CCCS(=O)(=O)Nc1ccc(F)c(C(=O)c2n[nH]c3ncc(-c4cccc(Cl)c4)cc23)c1F
97%	65%	12%	CCCS(=O)(=O)Nc1ccc(F)c(C(=O)c2n[nH]c3ncc(-c4cccc(F)c4)cc23)c1F
100%	28%	1.9%	CCCS(=O)(=O)Nc1ccc(F)c(C(=O)c2n[nH]c3ncc(-c4ccc(OC)cc4)cc23)c1F
100%	11%	9.7%	CCCS(=O)(=O)Nc1ccc(F)c(C(=O)c2n[nH]c3ncc(-c4cccc(N(C)C)c4)cc23)c1F
95%	73%	40%	CCCS(=O)(=O)Nc1ccc(F)c(C(=O)c2n[nH]c3ncc(-c4ccccc4N)cc23)c1F
100%	59%	4.8%	CCCS(=O)(=O)Nc1ccc(F)c(C(=O)c2n[nH]c3ncc(-c4ccc(F)cc4)cc23)c1F
100%	24%	23%	CCCS(=O)(=O)Nc1ccc(F)c(C(=O)c2n[nH]c3ncc(-c4cccc(OC)c4)cc23)c1F
83%	59%	32%	CCCS(=O)(=O)Nc1ccc(F)c(C(=O)c2n[nH]c3ncc(-c4ccccc4F)cc23)c1F
95%	93%	52%	CCCS(=O)(=O)Nc1ccc(F)c(C(=O)c2n[nH]c3ncc(-c4cccc([N+](=O)[O-])c4)cc23)c1F
100%	55%	65%	CCCS(=O)(=O)Nc1ccc(F)c(C(=O)c2n[nH]c3ncc(-c4ccc(F)cc4C)cc23)c1F
100%	67%	41%	CCCS(=O)(=O)Nc1ccc(F)c(C(=O)c2n[nH]c3ncc(-c4ccccc4C)cc23)c1F
